Legend:
Rec-1 cells = test: Ibrutinib-BFL fluorescence imaging of captured cells on the microfluidic device; assay type: cell-based; details: Rec-1 mantle cell lymphoma cells, FIG. 24
Jurkat cells = test: as above; assay type: cell-based; details: FIG. 24

Cc1cc(C)n2c1C=C1C=CC(CCC(=O)NCC=CC(=O)N3CCCC(n4nc(-c5ccc(Oc6ccccc6)cc5)c5c(N)ncnc54)C3)=[N+]1[B-]2(F)F (centres unmarked) [Ibrutinib-BFL]
fluorescence of cells when incubated with the imaging drug (binding) (Rec-1 cells): exhibit fluorescence | fluorescence of cells when incubated with the imaging drug (binding) (Jurkat cells): do not exhibit fluorescent

Source: patent US10151753B2, “Microfluidic devices for isolating particles” (The General Hospital Corporation, priority 2013, dated 2018)
